Source: ChEMBL document CHEMBL3608244, “Left-Hand Side Exploration of Novel Bacterial Topoisomerase Inhibitors to Improve Selectivity against hERG Binding” (ACS Med Chem Lett, 2015)
Converted amounts (≈) assume the structure as drawn.

Experiments:
[1] = test system: Mycobacterium tuberculosis; assay: Antimycobacterial activity against Mycobacterium tuberculosis H37Rv ATCC 27294 incubated for 7 days by microdilution method; assay type: functional; conditions: H37Rv ATCC 27294, 168 h
[2] = target: Voltage-gated inwardly rectifying potassium channel KCNH2 (Homo sapiens, UniProt Q12809)
Voltage-gated inwardly rectifying potassium channel KCNH2, sequence (Q12809 whole entry): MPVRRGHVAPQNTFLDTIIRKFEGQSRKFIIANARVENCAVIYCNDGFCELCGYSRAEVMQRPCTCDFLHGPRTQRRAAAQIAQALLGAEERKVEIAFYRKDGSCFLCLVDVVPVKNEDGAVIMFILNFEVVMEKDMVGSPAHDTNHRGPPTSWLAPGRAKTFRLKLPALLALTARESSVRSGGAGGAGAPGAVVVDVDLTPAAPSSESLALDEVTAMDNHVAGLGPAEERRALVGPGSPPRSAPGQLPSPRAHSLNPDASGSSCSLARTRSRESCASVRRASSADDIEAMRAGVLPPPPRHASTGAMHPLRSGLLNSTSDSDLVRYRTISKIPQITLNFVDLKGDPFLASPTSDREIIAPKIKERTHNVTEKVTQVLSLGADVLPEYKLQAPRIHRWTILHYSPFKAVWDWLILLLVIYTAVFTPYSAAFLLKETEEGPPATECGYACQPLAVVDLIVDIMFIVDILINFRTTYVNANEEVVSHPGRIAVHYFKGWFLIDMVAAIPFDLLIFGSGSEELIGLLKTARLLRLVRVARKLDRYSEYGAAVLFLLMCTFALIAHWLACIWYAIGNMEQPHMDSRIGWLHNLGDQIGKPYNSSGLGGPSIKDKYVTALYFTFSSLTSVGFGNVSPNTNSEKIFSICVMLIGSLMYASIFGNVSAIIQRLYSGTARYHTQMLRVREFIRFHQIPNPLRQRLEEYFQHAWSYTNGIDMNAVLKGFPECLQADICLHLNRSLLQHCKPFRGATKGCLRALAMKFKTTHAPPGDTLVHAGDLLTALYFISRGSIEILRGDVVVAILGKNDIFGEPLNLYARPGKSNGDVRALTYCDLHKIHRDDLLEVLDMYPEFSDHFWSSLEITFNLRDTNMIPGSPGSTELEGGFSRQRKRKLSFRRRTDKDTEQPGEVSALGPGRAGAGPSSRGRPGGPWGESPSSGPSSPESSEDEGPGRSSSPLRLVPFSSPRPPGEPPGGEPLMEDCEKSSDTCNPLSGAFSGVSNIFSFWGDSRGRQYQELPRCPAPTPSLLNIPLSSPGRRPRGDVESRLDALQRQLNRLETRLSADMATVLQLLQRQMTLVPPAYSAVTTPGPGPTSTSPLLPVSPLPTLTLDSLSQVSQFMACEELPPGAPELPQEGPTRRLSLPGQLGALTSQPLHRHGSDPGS
Description: Inhibition of human ERG by IonWorks assay

[3] = target: DNA gyrase subunit A/DNA gyrase subunit B (Mycobacterium tuberculosis (strain ATCC 25618 / H37Rv), UniProt P9WG45+P9WG47); assay: Inhibition of Mycobacterium tuberculosis H37Rv DNA gyrase assessed as supercoiling of pBR322 DNA after 90 mins by agarose gel electrophoresis method
DNA gyrase subunit A/DNA gyrase subunit B, sequence (P9WG45 whole entry): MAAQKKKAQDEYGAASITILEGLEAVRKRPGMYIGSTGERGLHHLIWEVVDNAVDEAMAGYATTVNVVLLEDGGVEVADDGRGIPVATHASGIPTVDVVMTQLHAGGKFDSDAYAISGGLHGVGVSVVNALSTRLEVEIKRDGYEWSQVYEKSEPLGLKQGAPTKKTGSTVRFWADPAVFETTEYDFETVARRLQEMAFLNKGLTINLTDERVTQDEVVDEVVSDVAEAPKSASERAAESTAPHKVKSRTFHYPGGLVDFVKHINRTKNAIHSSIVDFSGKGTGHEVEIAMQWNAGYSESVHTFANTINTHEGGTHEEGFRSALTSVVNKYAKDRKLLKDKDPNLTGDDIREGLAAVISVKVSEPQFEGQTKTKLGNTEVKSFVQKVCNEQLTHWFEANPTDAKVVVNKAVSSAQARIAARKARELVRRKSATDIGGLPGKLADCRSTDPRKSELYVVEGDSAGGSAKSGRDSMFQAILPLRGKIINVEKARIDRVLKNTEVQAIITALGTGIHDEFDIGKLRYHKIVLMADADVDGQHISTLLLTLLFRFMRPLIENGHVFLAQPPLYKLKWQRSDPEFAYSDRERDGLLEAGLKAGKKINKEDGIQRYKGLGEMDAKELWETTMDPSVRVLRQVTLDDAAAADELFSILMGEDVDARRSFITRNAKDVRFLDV
DNA gyrase subunit A/DNA gyrase subunit B, sequence (P9WG47 whole entry): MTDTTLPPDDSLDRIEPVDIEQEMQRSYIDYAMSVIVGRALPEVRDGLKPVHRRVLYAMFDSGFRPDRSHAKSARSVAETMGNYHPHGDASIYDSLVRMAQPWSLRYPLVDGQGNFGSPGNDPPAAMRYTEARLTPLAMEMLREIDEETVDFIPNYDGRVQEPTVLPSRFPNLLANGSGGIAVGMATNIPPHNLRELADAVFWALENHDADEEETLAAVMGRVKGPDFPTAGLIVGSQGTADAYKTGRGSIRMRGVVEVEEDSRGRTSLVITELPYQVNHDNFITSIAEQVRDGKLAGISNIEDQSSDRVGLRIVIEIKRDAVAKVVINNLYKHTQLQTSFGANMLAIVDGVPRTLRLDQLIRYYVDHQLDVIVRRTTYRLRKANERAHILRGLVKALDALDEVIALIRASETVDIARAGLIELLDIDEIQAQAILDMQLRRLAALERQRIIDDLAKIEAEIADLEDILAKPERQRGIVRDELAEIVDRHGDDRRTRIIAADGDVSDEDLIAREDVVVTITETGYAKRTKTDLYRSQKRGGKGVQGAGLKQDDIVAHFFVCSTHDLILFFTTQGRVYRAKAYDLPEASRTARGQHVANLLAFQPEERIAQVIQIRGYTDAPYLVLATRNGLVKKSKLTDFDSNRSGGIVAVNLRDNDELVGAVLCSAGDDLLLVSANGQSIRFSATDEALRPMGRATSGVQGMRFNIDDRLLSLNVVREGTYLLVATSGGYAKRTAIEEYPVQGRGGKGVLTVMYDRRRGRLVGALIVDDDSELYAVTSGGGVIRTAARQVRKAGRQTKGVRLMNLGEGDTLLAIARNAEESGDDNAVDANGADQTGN

[4] = test system: Caco-2; assay: Permeability across human Caco2 cells; assay type: ADME, cell-based
[5] = Solubility of the compound; assay type: physicochemical
[6] = test system: Mycobacterium tuberculosis; assay: Antimycobacterial activity against Mycobacterium tuberculosis infected in human THP1 cells assessed as bacteria killing effect at 1 to 16 ug/ml; assay type: functional, THP-1
[7] = test system: Mycobacterium tuberculosis; assay: Antimycobacterial activity against Mycobacterium tuberculosis in acute mouse model of tuberculosis assessed as bacteria killing effect at 100 mg/kg, po bid administered for 10 days relative to early control; assay type: functional
[8] = test system: Mycobacterium tuberculosis; assay: Antimycobacterial activity against Mycobacterium tuberculosis infected in human THP1 cells assessed as bacteria killing effect; assay type: functional, organism-based; conditions: THP-1

O=C1COc2ccc(CNC3CCN(CCn4c(=O)ccc5ncc(OCc6ccccn6)cc54)CC3)nc2N1
MIC [1]: 0.5 µM (≈ 0.271 µg/mL)

Cc1ncc(CNC2CCN(CCn3c(=O)ccc4ncc(Oc5ccc(S(N)(=O)=O)cc5)cc43)CC2)cc1Cl
MIC [1]: 0.06 µM (≈ 0.035 µg/mL) | IC50 [2]: 82000 nM

O=C1COc2ccc(CNC3CCN(CCn4c(=O)ccc5ccc(Oc6cccnc6)nc54)CC3)nc2N1
MIC [1]: 0.06 µM (≈ 0.0317 µg/mL) | IC50 [3]: 104 nM

O=C1COc2ccc(CNC3CCN(CCn4c(=O)ccc5ncc(Oc6cncc(F)c6)cc54)CC3)nc2N1
MIC [1]: 0.25 µM (≈ 0.136 µg/mL)

NS(=O)(=O)c1ccc(Oc2ccc3ccc(=O)n(CCN4CCC(NCc5ccc6c(n5)NC(=O)CO6)CC4)c3n2)cc1
MIC [1]: 0.03 µM (≈ 0.0182 µg/mL) | permeability [4]: impermeable | IC50 [2]: > 100000 nM

O=C1COc2ccc(CNC3CCN(CCn4c(=O)ccc5ncc(O[C@@H]6CCOC6)cc54)CC3)nc2N1
MIC [1]: 0.25 µM (≈ 0.13 µg/mL)

COc1c(N2C[C@@H]3CCCN[C@@H]3C2)c(F)cc2c(=O)c(C(=O)O)cn(C3CC3)c12 [MOXIFLOXACIN]
MIC [1]: 0.13 µM (≈ 0.0522 µg/mL)

O=C1COc2ccc(CN[C@@H]3CCN(CCn4c(=O)ccc5ncc(Oc6ccon6)cc54)C[C@@H]3F)nc2N1
MIC [1]: 0.25 µM (≈ 0.134 µg/mL) | solubility [5]: 665 µM (≈ 356 µg/mL) | permeability [4]: permeable

NNC(=O)c1ccncc1 [ISONIAZID]
MIC [1]: 0.06 µM (≈ 0.00823 µg/mL)

O=C1COc2ccc(CNC3CCN(CCn4c(=O)ccc5ncc(Oc6cccnc6)cc54)CC3)nc2N1
MIC [1]: 0.06 µM (≈ 0.0317 µg/mL) | solubility [5]: 665 µM (≈ 351 µg/mL) | permeability [4]: permeable

NS(=O)(=O)c1ccc(Oc2cnc3ccc(=O)n(CCN4CCC(c5nc6cc(Cl)ccc6[nH]5)CC4)c3c2)cc1
MIC [1]: 0.19 µM (≈ 0.11 µg/mL) | permeability [4]: impermeable

O=C1COc2ccc(CNC3CCN(CCn4c(=O)ccc5ccc(Oc6ccon6)nc54)CC3)nc2N1
MIC [1]: 0.25 µM (≈ 0.129 µg/mL)

O=C1COc2ccc(CNC3CCN(CCn4c(=O)ccc5ncc(Oc6ccon6)cc54)CC3)nc2N1
MIC [1]: 0.25 µM (≈ 0.129 µg/mL) | solubility [5]: 665 µM (≈ 344 µg/mL) | permeability [4]: permeable

Cn1ccc(COc2cnc3ccc(=O)n(CCN4CCC(NCc5ccc6c(n5)NC(=O)CO6)CC4)c3c2)n1
MIC [1]: 0.25 µM (≈ 0.136 µg/mL)

Cc1ncc(CNC2CCN(CCn3c(=O)ccc4ncc(F)cc43)CC2)cc1Cl
MIC [1]: 0.19 µM (≈ 0.0817 µg/mL) | IC50 [3]: 250 nM

COc1cnc2ccc(=O)n(CCN3CCC(c4nc5cc(Cl)ccc5[nH]4)CC3)c2c1
MIC [1]: 0.25 µM (≈ 0.109 µg/mL)

Cc1ncc(CNC2CCN(CCn3c(=O)ccc4ncc(Oc5ccc(S(N)(=O)=O)cc5)cc43)CC2)cc1C#N
MIC [1]: 0.06 µM (≈ 0.0344 µg/mL) | IC50 [2]: > 100000 nM

O=C1COc2ccc(CN[C@@H]3CCN(CCn4c(=O)ccc5ncc(Oc6cccnc6)cc54)C[C@@H]3F)nc2N1
MIC [1]: 0.25 µM (≈ 0.136 µg/mL) | IC50 [3]: 800 nM | solubility [5]: 665 µM (≈ 363 µg/mL) | permeability [4]: permeable | LCK [6]: 1 | LCK [7]: >1 | Activity [8]: Dose-dependent effect

O=C1COc2ccc(CNC3CCN(CCn4c(=O)ccc5ncc(OCc6cccnn6)cc54)CC3)nc2N1
MIC [1]: 1 µM (≈ 0.543 µg/mL)

COc1ccc2ccc(=O)n(CCN3CCC(NCc4ccc5c(n4)NC(=O)CO5)CC3)c2n1
MIC [1]: 0.25 µM (≈ 0.116 µg/mL) | IC50 [2]: 23000 nM

O=C1COc2ccc(CNC3CCN(CCn4c(=O)ccc5ccc(Oc6cncnc6)nc54)CC3)nc2N1
MIC [1]: 0.25 µM (≈ 0.132 µg/mL) | IC50 [3]: 173 nM | IC50 [2]: > 224000 nM

Cc1cc2[nH]c(C3CCN(CCn4c(=O)ccc5ncc(Oc6ccc(S(N)(=O)=O)cc6)cc54)CC3)nc2cc1C#N
MIC [1]: 0.25 µM (≈ 0.146 µg/mL) | IC50 [2]: > 33000 nM

O=C1COc2ccc(CNC3CCN(CCn4c(=O)ccc5ncc(O[C@H]6CCOC6)cc54)CC3)nc2N1
MIC [1]: 0.5 µM (≈ 0.26 µg/mL)

O=C(O)c1cn(C2CC2)c2cc(N3CCNCC3)c(F)cc2c1=O [CIPROFLOXACIN]
MIC [1]: 0.5 µM (≈ 0.166 µg/mL)

O=C1COc2ccc(CNC3CCN(CCn4c(=O)ccc5ccc(Cl)nc54)CC3)nc2N1
MIC [1]: 0.19 µM (≈ 0.0891 µg/mL) | IC50 [3]: 110 nM
